Assay results taken from paper PMC5218480 (PLoS ONE, 2017).

Tested on: MV-4-11 cells
Assay: Gene expression microarray analysis (Affymetrix PrimeView) and GSEA
Type: cell-based, human
Set-up: RFU PODN (11730768_x_at) / Fold change /veh PODN (11730768_x_at) / RFU LINC00158 (11744669_a_at) / Fold change /veh LINC00158 (11744669_a_at) / RFU DUSP10 (11751237_a_at) / Fold change /veh DUSP10 (11751237_a_at) / RFU ID3 (11757404_x_at) / Fold change /veh ID3 (11757404_x_at) / RFU PLEKHG5 (11737974_s_at) / Fold change /veh PLEKHG5 (11737974_s_at) / RFU LRRC4B (11730491_at) / Fold change /veh LRRC4B (11730491_at) / RFU GIMAP4 (11747438_a_at) / Fold change /veh GIMAP4 (11747438_a_at) / RFU KRT8 (11758183_x_at) / Fold change /veh KRT8 (11758183_x_at) / RFU CNN1 (11734310_a_at) / Fold change /veh CNN1 (11734310_a_at) / RFU VPS37D (11726825_at) / Fold change /veh VPS37D (11726825_at) / RFU C10orf10 (11716522_x_at) / Fold change /veh C10orf10 (11716522_x_at) / RFU KIR2DL2 /// KIR2DL4 /// KIR2DL5A /// KIR2DL5B /// KIR2DS1 /// KIR2DS2 /// KIR2DS3 /// KIR2DS4 /// KIR3DL3 /// KIR3DL3 /// KIR3DS1 (11738374_at) / Fold change /veh KIR2DL2 /// KIR2DL4 /// KIR2DL5A /// KIR2DL5B /// KIR2DS1 /// KIR2DS2 /// KIR2DS3 /// KIR2DS4 /// KIR3DL3 /// KIR3DL3 /// KIR3DS1 (11738374_at) / RFU C1QL1 (11718748_at) / Fold change /veh C1QL1 (11718748_at) / RFU TMPRSS4 (11747572_a_at) / Fold change /veh TMPRSS4 (11747572_a_at) / RFU HAMP (11756126_x_at) / Fold change /veh HAMP (11756126_x_at) / RFU RNFT2 (11725882_a_at) / Fold change /veh RNFT2 (11725882_a_at) / RFU NR4A2 (11747474_a_at) / Fold change /veh NR4A2 (11747474_a_at) / RFU ABCC12 (11746883_a_at) / Fold change /veh ABCC12 (11746883_a_at) / RFU TMEM136 (11760407_x_at) / Fold change /veh TMEM136 (11760407_x_at) / RFU CLDN22 /// WWC2 (11732394_at) / Fold change /veh CLDN22 /// WWC2 (11732394_at) / RFU HLA-DPB1 (11760878_x_at) / Fold change /veh HLA-DPB1 (11760878_x_at) / RFU SPINT1 (11716480_a_at) / Fold change /veh SPINT1 (11716480_a_at) / RFU GAP43 (11754022_s_at) / Fold change /veh GAP43 (11754022_s_at) / RFU A4GNT (11735810_at) / Fold change /veh A4GNT (11735810_at) / RFU PRB3 (11715151_x_at) / Fold change /veh PRB3 (11715151_x_at) / RFU TUBB4B (11761932_at) / Fold change /veh TUBB4B (11761932_at) / RFU CAPN14 (11732068_a_at) / Fold change /veh CAPN14 (11732068_a_at) / RFU TMCC2 (11721928_a_at) / Fold change /veh TMCC2 (11721928_a_at) / RFU IRGQ (11745062_a_at) / Fold change /veh IRGQ (11745062_a_at) / RFU FAM174B (11720279_a_at) / Fold change /veh FAM174B (11720279_a_at) / RFU TMPRSS4 (11748680_a_at) / Fold change /veh TMPRSS4 (11748680_a_at) / RFU FAM212B (11763350_a_at) / Fold change /veh FAM212B (11763350_a_at) / RFU PLEKHG5 (11743358_a_at) / Fold change /veh PLEKHG5 (11743358_a_at) / RFU ZSCAN30 (11745921_a_at) / Fold change /veh ZSCAN30 (11745921_a_at) / RFU CMKLR1 (11741424_a_at) / Fold change /veh CMKLR1 (11741424_a_at) / RFU LOC101060620 /// MAPK8IP1 (11723275_at) / Fold change /veh LOC101060620 /// MAPK8IP1 (11723275_at) / RFU SPTSSB (11747773_x_at) / Fold change /veh SPTSSB (11747773_x_at) / RFU PRSS12 (11739890_at) / Fold change /veh PRSS12 (11739890_at) / RFU BIN1 (11741810_x_at) / Fold change /veh BIN1 (11741810_x_at) / RFU WNT11 (11732464_a_at) / Fold change /veh WNT11 (11732464_a_at) / RFU C10orf10 (11716521_a_at) / Fold change /veh C10orf10 (11716521_a_at) / RFU C5orf56 (11738089_at) / Fold change /veh C5orf56 (11738089_at) / RFU CYB561 (11721691_x_at) / Fold change /veh CYB561 (11721691_x_at) / RFU ANKRD19P (11752326_a_at) / Fold change /veh ANKRD19P (11752326_a_at) / RFU OR2T12 /// OR2T33 /// OR2T8 (11738714_s_at) / Fold change /veh OR2T12 /// OR2T33 /// OR2T8 (11738714_s_at) / RFU VCAN (11748164_a_at) / Fold change /veh VCAN (11748164_a_at) / RFU JSRP1 (11732532_at) / Fold change /veh JSRP1 (11732532_at) / RFU KRTAP10-11 (11738290_x_at) / Fold change /veh KRTAP10-11 (11738290_x_at) / RFU MYO3A (11730013_a_at) / Fold change /veh MYO3A (11730013_a_at) / RFU EBF3 (11725865_a_at) / Fold change /veh EBF3 (11725865_a_at) / RFU CAMK2N1 (11719241_x_at) / Fold change /veh CAMK2N1 (11719241_x_at) / RFU C5orf56 (11738088_a_at) / Fold change /veh C5orf56 (11738088_a_at) / RFU OLFML3 (11715873_a_at) / Fold change /veh OLFML3 (11715873_a_at) / RFU LOC100653217 /// NTM (11731650_a_at) / Fold change /veh LOC100653217 /// NTM (11731650_a_at) / RFU MAPK11 (11762145_a_at) / Fold change /veh MAPK11 (11762145_a_at) / RFU FIZ1 (11724087_x_at) / Fold change /veh FIZ1 (11724087_x_at) / RFU OASL (11726364_x_at) / Fold change /veh OASL (11726364_x_at) / RFU SOX15 (11748057_x_at) / Fold change /veh SOX15 (11748057_x_at) / RFU CD79A (11719716_a_at) / Fold change /veh CD79A (11719716_a_at) / RFU HIST1H1D (11736915_at) / Fold change /veh HIST1H1D (11736915_at) / RFU CASKIN2 (11723855_a_at) / Fold change /veh CASKIN2 (11723855_a_at) / RFU LOC730098 (11760151_x_at) / Fold change /veh LOC730098 (11760151_x_at) / RFU OR4N2 (11742367_at) / Fold change /veh OR4N2 (11742367_at) / RFU PRRT2 (11749266_a_at) / Fold change /veh PRRT2 (11749266_a_at) / RFU SNX32 (11753110_a_at) / Fold change /veh SNX32 (11753110_a_at) / RFU CDHR5 (11726645_a_at) / Fold change /veh CDHR5 (11726645_a_at) / RFU RCAN1 (11760418_a_at) / Fold change /veh RCAN1 (11760418_a_at) / RFU FAM167A (11723789_a_at) / Fold change /veh FAM167A (11723789_a_at) / RFU FAM26E (11764081_at) / Fold change /veh FAM26E (11764081_at) / RFU ISYNA1 (11749810_s_at) / Fold change /veh ISYNA1 (11749810_s_at) / RFU ACY1 (11761880_at) / Fold change /veh ACY1 (11761880_at) / RFU 11764098_at / Fold change /veh 11764098_at / RFU SAMD14 (11745864_x_at) / Fold change /veh SAMD14 (11745864_x_at) / RFU NPB (11741838_a_at) / Fold change /veh NPB (11741838_a_at) / RFU TMPRSS6 (11731388_a_at) / Fold change /veh TMPRSS6 (11731388_a_at) / RFU KRTAP10-2 (11738614_at) / Fold change /veh KRTAP10-2 (11738614_at) / RFU ARHGAP8 /// PRR5-ARHGAP8 (11727945_x_at) / Fold change /veh ARHGAP8 /// PRR5-ARHGAP8 (11727945_x_at) / RFU KRTAP5-7 /// NADSYN1 (11734609_at) / Fold change /veh KRTAP5-7 /// NADSYN1 (11734609_at) / RFU RASL12 (11751679_a_at) / Fold change /veh RASL12 (11751679_a_at) / RFU CDKN2B (11736163_a_at) / Fold change /veh CDKN2B (11736163_a_at) / RFU PRF1 (11729649_at) / Fold change /veh PRF1 (11729649_at) / RFU, ZNF638 /// ZNF638-IT1 / Fold change vs veh, ZNF638 /// ZNF638-IT1 / RFU, PANK3 / Fold change vs veh, PANK3 / RFU, SH3YL1 / Fold change vs veh, SH3YL1 / RFU, ZEB2 / Fold change vs veh, ZEB2 / RFU, NRIP1 / Fold change vs veh, NRIP1 / RFU, PTTG1IP / Fold change vs veh, PTTG1IP / RFU, CAPN2 / Fold change vs veh, CAPN2 / RFU, MED14 / Fold change vs veh, MED14 / RFU, SNORA58 / Fold change vs veh, SNORA58 / RFU, C1orf63 / Fold change vs veh, C1orf63 / RFU, LRRFIP1 / Fold change vs veh, LRRFIP1 / RFU, NDUFAF7 / Fold change vs veh, NDUFAF7 / RFU, SLC12A2 / Fold change vs veh, SLC12A2 / RFU, IBTK / Fold change vs veh, IBTK / RFU, ESF1 / Fold change vs veh, ESF1 / Fold change vs veh, TMEM50B / RFU, TAOK1 / Fold change vs veh, TAOK1 / RFU, ACBD3 / Fold change vs veh, ACBD3 / RFU, TMA16 / Fold change vs veh, TMA16 / RFU, RWDD3 / Fold change vs veh, RWDD3 / RFU, BCAT1 / Fold change vs veh, BCAT1 / RFU, EDEM3 / Fold change vs veh, EDEM3 / RFU, TMEM33 / Fold change vs veh, TMEM33 / RFU, WDR75 / Fold change vs veh, WDR75 / RFU, AHCTF1 / Fold change vs veh, AHCTF1 / RFU, TFRC / Fold change vs veh, TFRC / RFU, ZDHHC17 / Fold change vs veh, ZDHHC17 / RFU, NOM1 / Fold change vs veh, NOM1 / RFU, ARL8B / Fold change vs veh, ARL8B / RFU, ZBTB11 / Fold change vs veh, ZBTB11 / RFU, TAMM41 / Fold change vs veh, TAMM41 / RFU, KIAA1704 /// LOC100996395 / Fold change vs veh, KIAA1704 /// LOC100996395 / RFU, ING1 / Fold change vs veh, ING1 / RFU, TRMT61B / Fold change vs veh, TRMT61B / RFU, FUBP3 / Fold change vs veh, FUBP3 / RFU, TP53 / Fold change vs veh, TP53 / RFU, TNKS2 / Fold change vs veh, TNKS2 / RFU, ZFP14 / Fold change vs veh, ZFP14 / RFU, ACTR2 / Fold change vs veh, ACTR2 / RFU, PPP3R1 / Fold change vs veh, PPP3R1 / RFU, PIK3R1 / Fold change vs veh, PIK3R1 / RFU, HNRNPA1 / Fold change vs veh, HNRNPA1 / RFU, RNF170 / Fold change vs veh, RNF170 / RFU, ZNF28 / Fold change vs veh, ZNF28 / RFU, RNGTT / Fold change vs veh, RNGTT / RFU, OGT / Fold change vs veh, OGT / RFU, BRD1 / Fold change vs veh, BRD1 / RFU, MARS / Fold change vs veh, MARS / RFU, ZNF655 / Fold change vs veh, ZNF655 / RFU, FAHD1 / Fold change vs veh, FAHD1 / RFU, BDP1 / Fold change vs veh, BDP1 / RFU, LRRCC1 / Fold change vs veh, LRRCC1 / RFU, ARID1A / Fold change vs veh, ARID1A / RFU, ZNF146 / Fold change vs veh, ZNF146 / RFU, ZNF330 / Fold change vs veh, ZNF330 / RFU, GPN3 / Fold change vs veh, GPN3 / RFU, C9orf123 / Fold change vs veh, C9orf123 / RFU, N4BP2L2 / Fold change vs veh, N4BP2L2 / RFU, ARFIP1 / Fold change vs veh, ARFIP1 / RFU, FAM179B / Fold change vs veh, FAM179B / RFU, BCL10 / Fold change vs veh, BCL10 / RFU, UHRF1BP1L / Fold change vs veh, UHRF1BP1L / RFU, BET1 / Fold change vs veh, BET1 / RFU, CNOT2 / Fold change vs veh, CNOT2 / RFU, ZNF268 / Fold change vs veh, ZNF268 / Fold change vs veh, ZNF507 / RFU, DGCR2 / Fold change vs veh, DGCR2 / RFU, WDSUB1 / Fold change vs veh, WDSUB1 / Fold change vs veh, HSP90B1 /// MIR3652 / RFU, ADSS / Fold change vs veh, ADSS / RFU, GK / Fold change vs veh, GK / RFU, ZNF148 / Fold change vs veh, ZNF148 / RFU, TAF9 / Fold change vs veh, TAF9 / RFU, SLC1A5 / Fold change vs veh, SLC1A5 / RFU, SLMO2 / Fold change vs veh, SLMO2 / RFU, ABCC4 / Fold change vs veh, ABCC4 / RFU, LOC101060439 /// RAP1B / Fold change vs veh, LOC101060439 /// RAP1B / RFU, RFX7 / Fold change vs veh, RFX7 / RFU, GTPBP10 / Fold change vs veh, GTPBP10 / RFU, CNEP1R1 / Fold change vs veh, CNEP1R1 / RFU, BIVM-ERCC5 /// ERCC5 / Fold change vs veh, BIVM-ERCC5 /// ERCC5 / RFU, ILF3 / Fold change vs veh, ILF3 / RFU 11762660_at / Fold change /veh 11762660_at / RFU VCAN (11757783_s_at) / Fold change /veh VCAN (11757783_s_at) / RFU DDX43 (11728927_at) / Fold change /veh DDX43 (11728927_at) / RFU KRT8 (11758188_x_at) / Fold change /veh KRT8 (11758188_x_at) / RFU NKD1 (11759106_at) / Fold change /veh NKD1 (11759106_at) / RFU SRD5A1 (11742802_a_at) / Fold change /veh SRD5A1 (11742802_a_at) / RFU TPSAB1 /// TPSB2 (11721975_s_at) / Fold change /veh TPSAB1 /// TPSB2 (11721975_s_at) / RFU GSTM3 (11746129_a_at) / Fold change /veh GSTM3 (11746129_a_at) / RFU IL23R (11737362_x_at) / Fold change /veh IL23R (11737362_x_at) / RFU TMEM51 (11727254_a_at) / Fold change /veh TMEM51 (11727254_a_at) / RFU PIWIL2 (11732686_x_at) / Fold change /veh PIWIL2 (11732686_x_at) / RFU ORM1 (11744905_x_at) / Fold change /veh ORM1 (11744905_x_at) / RFU CCDC152 (11743942_at) / Fold change /veh CCDC152 (11743942_at) / RFU ECM1 (11717891_a_at) / Fold change /veh ECM1 (11717891_a_at) / RFU IL23R (11748794_a_at) / Fold change /veh IL23R (11748794_a_at) / RFU TNFAIP8L3 (11732012_x_at) / Fold change /veh TNFAIP8L3 (11732012_x_at) / RFU MBOAT4 (11741988_at) / Fold change /veh MBOAT4 (11741988_at) / RFU 11764193_at / Fold change /veh 11764193_at / RFU TMEM53 (11763286_at) / Fold change /veh TMEM53 (11763286_at) / RFU MAGEB2 (11727129_at) / Fold change /veh MAGEB2 (11727129_at) / RFU TMEM200A (11744735_a_at) / Fold change /veh TMEM200A (11744735_a_at) / RFU CCDC152 (11751479_a_at) / Fold change /veh CCDC152 (11751479_a_at) / RFU FAM211A (11726209_a_at) / Fold change /veh FAM211A (11726209_a_at) / RFU RGS16 (11746705_a_at) / Fold change /veh RGS16 (11746705_a_at) / RFU VCAN (11755009_s_at) / Fold change /veh VCAN (11755009_s_at) / RFU RHOB (11743442_s_at) / Fold change /veh RHOB (11743442_s_at) / RFU RGS16 (11720943_a_at) / Fold change /veh RGS16 (11720943_a_at) / RFU RGS16 (11720944_at) / Fold change /veh RGS16 (11720944_at) / RFU, VPS4B / Fold change vs veh, VPS4B / RFU, CREB1 / Fold change vs veh, CREB1 / RFU, DNAJC13 / Fold change vs veh, DNAJC13 / RFU, GNAQ / Fold change vs veh, GNAQ / RFU, CDK5R1 / Fold change vs veh, CDK5R1 / RFU, ZRANB3 / Fold change vs veh, ZRANB3 / RFU, CUL4A / Fold change vs veh, CUL4A / RFU, CCNY / Fold change vs veh, CCNY / RFU, UFL1 / Fold change vs veh, UFL1 / RFU, COG3 / Fold change vs veh, COG3 / RFU, DIAPH2 / Fold change vs veh, DIAPH2 / RFU, SKA2 / Fold change vs veh, SKA2 / RFU, AFF3 / Fold change vs veh, AFF3 / RFU, LMF1 / Fold change vs veh, LMF1 / RFU, IPO11 / Fold change vs veh, IPO11 / RFU, DFFB / Fold change vs veh, DFFB / RFU, FOXP1 / Fold change vs veh, FOXP1 / RFU, CARD8 / Fold change vs veh, CARD8 / RFU, STRN3 / Fold change vs veh, STRN3 / RFU, ADK / Fold change vs veh, ADK / RFU, RASSF2 / Fold change vs veh, RASSF2 / RFU, WIPF1 / Fold change vs veh, WIPF1 / RFU, LARP1B / Fold change vs veh, LARP1B / RFU, RASA1 / Fold change vs veh, RASA1 / RFU, RB1 / Fold change vs veh, RB1 / RFU, PPFIA1 / Fold change vs veh, PPFIA1 / RFU, MAT2A / Fold change vs veh, MAT2A / RFU, CCT5 / Fold change vs veh, CCT5 / RFU, WDR92 / Fold change vs veh, WDR92 / RFU, CUX1 / Fold change vs veh, CUX1 / RFU, TTC7A / Fold change vs veh, TTC7A / RFU, TMEM135 / Fold change vs veh, TMEM135 / RFU, DEPTOR / Fold change vs veh, DEPTOR / RFU, CPM / Fold change vs veh, CPM / RFU, DNAJB6 / Fold change vs veh, DNAJB6 / RFU, CACNA2D3 / Fold change vs veh, CACNA2D3 / RFU, DTX4 / Fold change vs veh, DTX4 / RFU, TFCP2 / Fold change vs veh, TFCP2 / RFU, GMCL1 /// GMCL1P1 / Fold change vs veh, GMCL1 /// GMCL1P1 / RFU, AEBP2 / Fold change vs veh, AEBP2 / RFU, SNHG1 /// SNORD22 /// SNORD25 /// SNORD26 /// SNORD27 /// SNORD28 /// SNORD29 /// SNORD31 / Fold change vs veh, SNHG1 /// SNORD22 /// SNORD25 /// SNORD26 /// SNORD27 /// SNORD28 /// SNORD29 /// SNORD31 / Fold change (Aza/veh), C12orf56 (ProbeSet 11735607_a_at) / Fold change (ACY-1035/veh), C12orf56 (ProbeSet 11735607_a_at) / Fold change (Aza/veh), FGFR1OP (ProbeSet 11751329_s_at) / Fold change (ACY-1035/veh), FGFR1OP (ProbeSet 11751329_s_at) / Fold change (Aza/veh), VPS36 (ProbeSet 11739960_a_at) / Fold change (ACY-1035/veh), VPS36 (ProbeSet 11739960_a_at) / RFU SYPL1 (11715823_x_at) / Fold change /veh SYPL1 (11715823_x_at) / RFU IGFBP7 (11715501_s_at) / Fold change /veh IGFBP7 (11715501_s_at) / RFU REEP3 (11722064_at) / Fold change /veh REEP3 (11722064_at) / RFU IGLL1 (11728026_x_at) / Fold change /veh IGLL1 (11728026_x_at): dose or concentration left out as unconfirmed
Details: ProbeSet 11745789_a_at; LIST D

With Nc1ccc(-c2cccs2)cc1NC(=O)c1ccc2c(c1)cc(C1CC1)n2CCN1CCOCC1 [ACY-1035] the “Fold change vs veh, TMEM135” value was 0.97.
